Series [1] addresses T1, eDHFR (Escherichia coli, UniProt P0ABQ4).
T1 sequence (P0ABQ4 1-159): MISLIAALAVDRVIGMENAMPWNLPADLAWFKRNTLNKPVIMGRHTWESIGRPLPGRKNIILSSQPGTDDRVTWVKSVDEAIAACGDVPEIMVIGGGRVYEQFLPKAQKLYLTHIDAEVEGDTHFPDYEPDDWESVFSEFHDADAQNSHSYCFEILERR
In kind it is cell-based. As to conditions: I45 mesothelioma cells, eDHFR-FLAG vs WT; 60 min at 37 °C. From the text:
See, FIG. 1E. […] See, FIG. 1F.

The nature of series [2]: Ex vivo biodistribution in healthy Balb/c mice. The arrangement: species or system mouse. The protocol: Given promising in vitro experimental results, a biodistribution study was conducted on healthy balb/c mice. […] Mice were then euthanized 1-hour, 4-hour, and 24-hour post radiotracer injection, and organs were harvested for bio-distribution quantification. […] Total radioactive uptake per organ, in CPM, was determined by γ-counter (Wizard Detector, Perkin Elmer). […] See, FIG. 10A-10B and FIG. 11. These tissues could be sites where eDHFR could be localized using genetic vectors to achieve a high therapeutic index.
Another ex-vivo biodistribution study was performed with potassium iodide (SSKI) administration 8-12-week-old female balb/c mice (n=9) were administered with intraperitoneal administration for thyroid protection, with a dose of 100 mg/kg potassium iodide in a volume of 100 μL/10 g given the day before treatment, 30 minutes before the radioactive [^131I]mI-TMP injection.

The test system of another series is HCT116-eDHFR tumors. Description: Ex vivo biodistribution in HCT116 tumor-bearing athymic nude mice. Conditions: 1.85 MBq i.v., 3 hours. Also noted: species or system human. The method, then: (§1) To evaluate the therapeutic potential [^131I]mI-TMP, sixteen (16) 8- to 12-week-old female athymic nude mice (Charles River Laboratories) were inoculated with 1×10^7 HCT116 tumor cells (eDHFR+ or WT) on the left shoulder. The mice were then divided into two groups: […] (8) mice with HCT116-eDHFR (eDHFR-positive cells) and Eight (8) mice with HCT116-WT (eDHFR-negative) cells.
Ex-vivo biodistribution studies were conducted on three (3) tumor-bearing mice from each group, while the remaining ten (10) mice were used to monitor tumor response to radiotherapy.
Three (3) hours post radiotracer injection mice were euthanized, and organs of interest were harvested for biodistribution quantification. Total radioactive uptake per organ, in counts per minute (CPM), was determined by γ-counter (Perkin Elmer).

Another series has as its system HCT116 tumor cells. Description: Radiotherapy of HCT116 tumor-bearing athymic nude mice. Format: in vivo, human.
Excerpt: Tumor size measurements were taken using calipers from day 1 to 14 post-injection of the [^131I]mI-TMP to monitor the response of radiation therapy. […] See, FIG. 11 and FIG. 12.
as §1
Three (3) of the five (5) mice from each cohort were imaged at 3- and 24-hours post [^131I]mI-TMPI radiotherapy injection using small animal SPECT and CT instruments. Five (5) mice from each cohort (which included the 3 imaged mice from each cohort) were then monitored for 14 days using caliper measurements and IVIS imaging.

For a further series, the system named is I45 eDHFR-FLAG tumors. Description: Biodistribution in I45 tumor-bearing CD1 nude mice. Format: in vivo, human. Conditions: 24 hours. The protocol:
RLT in I45 tumors. […] Briefly, I45 eDHFR-FLAG and WT cells were xenografted into the shoulders of female athymic CD1-Foxn1nu mice. The tumors were allowed to grow for ~2 weeks. Subsequently, [^131I]I-TMP was administered intravenously and a limited biodistribution study was performed. […] To assess for cytotoxicity in I45 mesothelioma cells, I45 WT and I45 eDHFR tumors were separately xenografted into CD1-Foxn1nu mice and either [^131I]I-TMP or saline was administered to form 4 experimental cohorts (n=7).
(v) In vivo I45 eDHFR-FLAG Tumor Model. Female CD1 nu/nu mice, aged six to eight weeks, were subject to subcutaneous xenografting. Specifically, I45 eDHFR-Flag cells (1×10^6 cells/mouse) were suspended in a solution comprising equal volumes of 75 μL RPMI complete medium and 75 μL Matrigel Matrix (Corning, 354234) for implantation on the shoulder.

The target in series [3] is T1, eDHFR. Description: Uptake and washout in HCT116-eDHFR-Luc vs WT cells. Format: cell-based. Also noted: in CAR T cells fused to C-terminus of CD3zeta of FAP-CAR. The method, then: The cells were sampled at 1 h, 2 h and 4 h. […] Similarly, the process cells was repeated for 2 h and 4 h samples.
Next, the therapeutic effect of [^131/125I]mI-TMP in a human colorectal carcinoma cell line, HCT116 was analyzed. […] The specificity of radiotracer uptake was determined by blocking conditions. […] See, FIG. 10A.
A washout study was performed to know the retention of the tracer in the cells. HCT116_eDHFR cells were incubated with 0.037 MBq of compound 5b for 20 minutes. The cells were washed, resuspended and sampled at 60, 120 and 240 minutes. […] To examine the radiotherapeutic effect, the incubation period was increased and the dose […]. The cells were dosed with 3.7 MBq at 37 °C and incubated them with 2 and 4 hours. See, FIG. 10B.

“Also recorded” adds a separate entry of the source.

`COc1cc(Cc2cnc(N)nc2N)cc([131I])c1OC` [[^131I]mI-TMP, 5-(3-iodo-4,5-dimethoxybenzyl)pyrimidine-2,4-diamine]: at eDHFR [1], the “uptake in eDHFR+ cells compared to wild type” value is ~ 80 fold. In series [2] (0.67 MBq, 1 h), the “stomach and liver uptake with KI pre-treatment” value is listed as “low uptake”; the “uptake in blood, heart, lungs, brain, pancreas, bones and spleen with KI pre-treatment” value was “Minimal to no uptake; also recorded: negligible uptake”. Moreover, the “organ radioactivity, 24 h” value in series [2] (0.74 MBq i.v. tail vein, 24 h, no KI) was “increase in radioactivity in thyroid, indicating the deiodination”. Further, the “organ radioactivity, 1 h” value in series [2] (0.74 MBq i.v. tail vein, Balb/c, after 1 h time point) was “significant increase in the radioactivity in the kidney, small intestine, stomach, and liver”. The “uptake in heart, lungs, brain, pancreas, bones and spleen” value in series [2] (0.74 MBq i.v., all time points (1, 4, 24 h)) is “Minimal to no uptake”. In addition, the “organ radioactivity with KI pre-treatment” value in series [2] (kidney, small intestine, large intestine, 0.67 MBq, 1 h) is “significant increase in the radioactivity in the kidney, small intestine and large intestine”. For the same compound, in series [2] (potassium iodide (SSKI) 100 mg/kg, 0.67 MBq, 1 h), the “thyroid uptake with KI pre-treatment” value is “abrogated thyroid uptake”. In addition, the “uptake in eDHFR tumors relative to WT tumors” value with HCT116-eDHFR tumors is “twice as much”. Moreover, in the series on HCT116 tumor cells (18.5 MBq (500 μCi) i.v. tail vein, caliper, day 1 to 14), the “tumor size, eDHFR-Luc tumors” value is recorded as “reduction in tumor size at day 7 post-injection, which remained stable until day 10 but increased by day 14”. Also, the “tumor size, eDHFR-negative tumors” value in the series with HCT116 tumor cells (18.5 MBq (500 μCi) i.v., day 7 to day 14) is listed as “continued to grow from day 7 to day 14”. Also, the “presence in eDHFR+ tumors” value in the series on I45 eDHFR-FLAG tumors (18.5 MBq i.v.) is on record as “present in eDHFR+ tumors, even after 24 hours”. Also, in the series on I45 eDHFR-FLAG tumors, the “uptake in eDHFR tumors compared to WT tumors” value is listed as “over 1000 fold” and the “washout from eDHFR tumors” value is reported as “without substantial washout”. Besides, on eDHFR [3], the “uptake of radiotracer in eDHFR+ cells in comparison to wild-type” value is “two-fold increase in uptake”.

The values are drawn from patent US20260364213A1, “RADIOLABELED COMPOUNDS OF TRIMETHOPRIM AND USES THEREOF” (THE TRUSTEES OF THE UNIVERSITY OF PENNSYLVANIA, priority 2023, published 2026).
